# Read-outs that look alike come from different tables or passages of the source.
# Tests used:
# [1] = Percutaneous administration by strapping technique to conscious rats (rayon cloth on abdominal region), plasma concentration by HPLC; assay type: in vivo, rat (Jcl Wistar strain male); conditions: for BA: absolute bioavailability, AUC percutaneous divided by AUC intravenous; for Percent of apparent absorption: residual drug in rayon cloth recovered at 24 hr; for Cmax / Tmax / AUC(0-t): male, Jcl Wistar, rat, plasma, topical or ocular, conscious rats; for Cmax: aqueous base 3% 1-menthol/30% ethanol/67% pH 4 phosphate buffer, 5.6 mg/mL; for Tmax / AUC(0-t): aqueous base pH 4, 5.6 mg/mL; for AUC(0-t): read-out: AUC 0-360 min (converted)
# Experimental: The experiment was performed by the strapping technique under the conscious condition. Non-fasting rats (Jcl Wistar strain male rat 9-11 W) were cannulated in the jugular vein two days before the percutaneous administration experiment. On the day of experiment, abdominal region hair of rats were removed using a hair clipper and shaver under ether anesthesia. Three different volumes (0.125, 0.25, and 0.5 mL) of the aqueous basic formulation (3% 1-menthol/30% ethanol/67% pH 4 phosphate buffer) containing 5.6 mg/mL of Compound (I-1) were administered (2, 4, and 8 mg/kg) on the rayon cloths, which area were 2.5, 5, and 10 cm^2, respectively, supported by tape on the abdominal region then covered with gum tape. Blood samples were collected from the jugular vein of the rats in a cage, at the time of 0, 0.5, 1, 2, 3, 4, 6, 8, and 10 hr. Plasma concentrations were measured by HPLC. The rayon cloths were recovered at 24 hr after the administration and the residual drug was extracted by 30 mL of methanol in a 50 mL centrifuge tube and measured its concentration by HPLC. The percent of apparent absorption was calculated and the absolute bioavailability was calculated from the AUC of percutaneous administration divided by the AUC of intravenous administration.
# acetylcholine release = experiment: Acetylcholine release in frontal cortex dialysate (microdialysis) after percutaneous administration; assay type: in vivo, rat (Jcl Wistar strain male); conditions: 2, 4 and 8 mg/kg percutaneous, aqueous basic formulation 5.6 mg/mL; values only in FIG. 5 and 6
# Experimental: The day before experiment, a dialysis probe of 2 mm membrane length was inserted into frontal cortex of non-fasting rats (Jcl Wistar strain male rat 9-11 W). On the day of experiment, abdominal region hair was removed using a hair clipper and shaver under 2% halothane anesthesia. The aqueous basic formulation containing 5.6 mg/mL of Compound (I-1) was administered at a volume of 0.125, 0.25 and 0.5 mL to the rayon cloths which area were 2.5, 5, and 10 cm^2, respectively (Dose: 2, 4 and 8 mg/kg). Then the rayon cloths were placed on the abdominal region by support tape and covered with gum tape. After the administration, acetylcholine concentration in dialysate was measured every 30 min. FIG. 5 indicates a time-course of acetylcholine release after the administration of Compound (I-1). The plot data express the percent of control and the control level was monitored before the administration of Compound (I-1) in the same rat. The AUC values were calculated for 4 hrs of acetylcholine release as the percent of control in FIG. 6.
# skin = experiment: Macroscopic check of the applied skin and subcutaneous part after the experiment (irritation); assay type: in vivo, rat (Jcl SD strain)
# Experimental: (IV) After the blood collection at 8 hrs, the residual drug in pharmaceutical preparations of the present invention in the cell was recovered by the addition of 50 mL of methanol. The percent of apparent absorption was calculated by the difference between the initial dose and the recovered amount at 8 hrs. AUC and MRT were calculated from plasma concentration profiles measured by HPLC. Furthermore, the skin to which the applied pharmaceutical preparations were applied and their subcutaneous part were removed and macroscopically checked after the experiments.
# [2] = Percutaneous administration to anesthetized rats (glass cell on abdominal skin), plasma concentration by HPLC and residual drug recovery; assay type: in vivo, rat (Jcl SD strain); conditions: for MRT / AUC / Cmax / Tmax: Jcl SD, rat, plasma, topical or ocular, N=3
# Experimental: (I) A base was composed of 2.5% 1-menthol/20% ethanol/77.5% distilled water. The phosphate salt of Compound (I-1) as an active ingredient was dissolved or dispersed in it at concentrations of 1.4, 5.6, and 11.2 mg/mL. (II) To Non-fasting rats (Jcl SD strain rat, 9-10 weeks old) was injected 20% urethane solution subcutaneously (0.65 mL/100 g BW). After the anesthetic condition of the rat became stable, abdominal hair was removed using a hair clipper and shaver, then the rats were kept on a hotplate at 36° C. A glass cell (35 mm I.D. with a ground stopper) was attached using Aron alpha (trademark) in an abdominal region of the rat and absorbent gauze (about two sheets) was placed in the cell, then 0.5 mL of the above obtained pharmaceutical preparations of the invention was administrated to the cell (2, 8 or 16 mg/kg, N=3). (III) The time of blood collection: 0, 1, 2, 3, 4, 6, and 8 hr after the administration (IV) After the blood collection at 8 hrs, the residual drug in pharmaceutical preparations of the present invention in the cell was recovered by the addition of 50 mL of methanol. The percent of apparent absorption was calculated by the difference between the initial dose and the recovered amount at 8 hrs. AUC and MRT were calculated from plasma concentration profiles measured by HPLC. Furthermore, the skin to which the applied pharmaceutical preparations were applied and their subcutaneous part were removed and macroscopically checked after the experiments. A phosphate buffer of pH 9 was prepared from 1/15 mole of dibasic sodium phosphate dissolved in […] of distilled water. The phosphate buffers of pH 4 and pH 7 were prepared by the addition of phosphoric acid to the pH 9 buffer. A bBase was composed of 3% 1-menthol/30% ethanol/67% phosphate buffer. The phosphate salt of Compound (I-1) as an active ingredient was dissolved or dispersed in the base at a concentration of 5.6 mg/mL. Other conditions were the same as that of Experiment 1 (N=3). Results are represented in Table 2 and FIG. 2. The phosphate salt of Compound (I-1) as an active ingredient was dissolved or dispersed in bases in Table 3 at a concentration of 5.6 mg/mL. Other condition were the same as that of the Experiment 1. The 3% 1-menthol/30% ethanol/67% pH 4 phosphate buffer was selected as an aqueous base. The 2.5% 1-menthol/20% ethanol/77.5% isopropyl myristate was selected as an oily base. The phosphate salt of Compound (I-1) as an active ingredient was dissolved or dispersed in the aqueous or oily formulation at a concentration of 5.6 mg/mL. Other conditions were the same as that of Experiment 1 (N=3).
# [3] = 8 mg/kg, pH 4, aqueous base 3% 1-menthol/30% ethanol/67% pH 4 phosphate buffer, phosphate salt 5.6 mg/mL
# [4] = 8 mg/kg, pH 4, base pH 4: 3% 1-menthol/30% ethanol/67% phosphate buffer, phosphate salt 5.6 mg/mL
# [5] = 8 mg/kg, pH 7, base pH 7: 3% 1-menthol/30% ethanol/67% phosphate buffer, phosphate salt 5.6 mg/mL
# [6] = 8 mg/kg, aqueous base 3% 1-menthol/30% ethanol/67% pH 4 phosphate buffer, phosphate salt 5.6 mg/mL
# [7] = 8 mg/kg, oily base 2.5% 1-menthol/20% ethanol/77.5% isopropyl myristate, phosphate salt 5.6 mg/mL
structure (smiles),measurement,setting,value
"c1cc(-c2nc3c4c(ncc3[nH]2)CCOC4)no1 [Compound (I-1), 2-(3-isoxazolyl)-3,6,7,9-tetrahydroimidazo[4,5-d]pyrano[4,3-b]pyridine]",BA,[1]; 2 mg/kg percutaneous,30.92 ± 2.59%
same,Percent of apparent absorption,[1]; 2 mg/kg percutaneous,63.9%
same,BA,[1]; 4 mg/kg percutaneous,17.86 ± 6.40%
same,Percent of apparent absorption,[1]; 4 mg/kg percutaneous,52.8%
same,BA,[1]; 8 mg/kg percutaneous,22.68 ± 9.47%
same,Percent of apparent absorption,[1]; 8 mg/kg percutaneous,60.0%
same,Cmax,"[1]; 2 mg/kg percutaneous (0.125 mL, 2.5 cm^2)",140 ± 30 ng/mL
same,Tmax,[1]; 2 mg/kg percutaneous,1.25 h
same,AUC(0-t),[1]; 2 mg/kg percutaneous,375 ng·h/mL
same,Cmax,"[1]; 4 mg/kg percutaneous (0.25 mL, 5 cm^2)",170 ± 60 ng/mL
same,Tmax,[1]; 4 mg/kg percutaneous,1.55 h
same,AUC(0-t),[1]; 4 mg/kg percutaneous,408 ng·h/mL
same,Cmax,"[1]; 8 mg/kg percutaneous (0.5 mL, 10 cm^2)",450 ± 150 ng/mL
same,Tmax,[1]; 8 mg/kg percutaneous,0.85 h
same,AUC(0-t),[1]; 8 mg/kg percutaneous,1000 ng·h/mL
same,"acetylcholine release in frontal cortex dialysate (percent of control, time-course and AUC for 4 hrs)",acetylcholine release,prolonged pharmacological effect
same,skin irritation (macroscopic check),"skin; Experiment 1: all doses (2, 8, 16 mg/kg), 2.5% 1-menthol/20% ethanol/77.5% distilled water base",No irritations
same,skin irritation (macroscopic check),"skin; Experiment 2: all formulations (pH 4 and pH 7 phosphate buffer bases), 5.6 mg/mL",No irritations
same,Percent of apparent absorption,"[2]; 2 mg/kg percutaneous, phosphate salt in 2.5% 1-menthol/20% ethanol/77.5% distilled water, initial dose minus recovered amount at 8 hrs",71.3%
same,Percent of apparent absorption,"[2]; 8 mg/kg percutaneous, phosphate salt in 2.5% 1-menthol/20% ethanol/77.5% distilled water, initial dose minus recovered amount at 8 hrs",81.0%
same,Percent of apparent absorption,"[2]; 16 mg/kg percutaneous, phosphate salt in 2.5% 1-menthol/20% ethanol/77.5% distilled water, initial dose minus recovered amount at 8 hrs",35.8%
same,MRT,"[2]; 2 mg/kg, 2 mg/kg percutaneous, phosphate salt 1.4 mg/mL in 2.5% 1-menthol/20% ethanol/77.5% distilled water",3.4 ± 0.6 h
same,AUC,"[2]; 2 mg/kg, 2 mg/kg percutaneous, phosphate salt 1.4 mg/mL in 2.5% 1-menthol/20% ethanol/77.5% distilled water, blood to 8 hr",490 ± 500 ng·h/mL
same,MRT,"[2]; 8 mg/kg, 8 mg/kg percutaneous, phosphate salt 5.6 mg/mL in 2.5% 1-menthol/20% ethanol/77.5% distilled water",3.6 ± 0.2 h
same,AUC,"[2]; 8 mg/kg, 8 mg/kg percutaneous, phosphate salt 5.6 mg/mL in 2.5% 1-menthol/20% ethanol/77.5% distilled water, blood to 8 hr",720 ± 50 ng·h/mL
same,AUC,[2]; [3],1610 ± 300 ng·h/mL
same,MRT,[2]; [3],2.2 ± 0.5 h
same,AUC,[2]; [4],1810 ± 300 ng·h/mL
same,MRT,[2]; [4],3 ± 0.2 h
same,AUC,[2]; [5],380 ± 180 ng·h/mL
same,MRT,[2]; [5],3.4 ± 0.3 h
same,Cmax,[2]; [6],690 ± 130 ng/mL
same,Tmax,[2]; [6],1.3 ± 0.6 h
same,AUC,[2]; [7],470 ± 100 ng·h/mL
same,Cmax,[2]; [7],160 ± 10 ng/mL
same,MRT,[2]; [7],2.6 ± 0.6 h
same,Tmax,[2]; [7],1 h
same,MRT,"[2]; 16 mg/kg, 16 mg/kg percutaneous, phosphate salt 11.2 mg/mL in 2.5% 1-menthol/20% ethanol/77.5% distilled water",4 ± 0.7 h
same,AUC,"[2]; 16 mg/kg, 16 mg/kg percutaneous, phosphate salt 11.2 mg/mL in 2.5% 1-menthol/20% ethanol/77.5% distilled water, blood to 8 hr",460 ± 180 ng·h/mL
same,Percent of apparent absorption,"[2]; base 2.5% I-menthol, 20% ethanol, 77.5% isopropyl myristate, phosphate salt 5.6 mg/mL",28.1%
same,Percent of apparent absorption,"[2]; base pH 4: 3% 1-menthol/30% ethanol/67% phosphate buffer, phosphate salt 5.6 mg/mL",66.8%
same,Percent of apparent absorption,"[2]; base pH 7: 3% 1-menthol/30% ethanol/67% phosphate buffer, phosphate salt 5.6 mg/mL",22.6%
same,Percent of apparent absorption,"[2]; reference example base 5% N-methyl pyrrolidone, 5% ethanol, 90% isopropyl myristate, phosphate salt 5.6 mg/mL",17.4%
same,Percent of apparent absorption,"[2]; reference example base 5% ethanol, 95% isopropyl myristate, phosphate salt 5.6 mg/mL",13.0%
same,Percent of apparent absorption,"[2]; reference example base 5% lactic acid, 5% ethanol, 90% isopropyl myristate, phosphate salt 5.6 mg/mL",11.9%
same,concentrations of Compound (I-1) in all plasma samples,"[2]; reference example bases of Table 3, under the limit of detection",< 50 ng/mL
